# Results from US10195204B2, “Methods of treating hemoglobinopathies” (DUKE UNIVERSITY, priority 2011, dated 2019).
# Experiments:
# [1] = tested on: PMN adhesion to non-activated HUVECs; assay: Adhesion to HUVECs of PMNs co-incubated with epinephrine-stimulated SS RBCs; assay type: cell-based, human; conditions: SS RBCs pre-incubated with inhibitor for 1 hour, then 20 nM epinephrine 1 min
# Protocol: The cells were then washed prior to admixture with fluorescently-labeled native polymorphonuclear cells (PMNs) obtained from healthy donors at a RBC:PMN ratio of 10:1. After co-incubation for 30 minutes at 37° C., cells mixtures were assayed for their ability to adhere to non-activated HUVECs. […] Downregulation of RBC adhesion receptor activity by targeting ERK may not only decrease SS RBC adhesion to the endothelium but also reduce RBC-stimulated leukocyte activation.
# [2] = tested on: human SS RBC adhesion in inflamed venules and vaso-occlusion; assay: Intravital microscopy in TNF-α-treated nude mice infused with human SS RBCs treated ex vivo with MEK inhibitor; conditions: for percentage of venular length occupied by treated SS RBCs: compared to sham
# Description: For some in vivo adhesion studies, packed SS RBCs were fluorescently labeled with the dye Dil (Molecular Probes Inc., Eugene, Oreg.), following the manufacturer's instructions. […] Cell morphology was checked by microscopy.
# [3] = tested on: SS RBC adhesion to TNF-α-activated HUVECs; assay: Flow chamber adhesion of SS RBCs to TNF-α-activated HUVECs; assay type: cell-based, human; conditions: for effect on SS RBC adhesion to TNF-α-activated HUVECs: SS RBCs treated with MEK inhibitor (10 μM; RDEA119 1 and 10 μM)
# Protocol: Cells were then washed three times with 5 ml PBS with Ca^2+ and Mg^2+. Prior to adhesion assays, washed treated SS RBCs were labeled with PKH 26 red fluorescent cell linker kit (Sigma-Aldrich, St. Louis, Mo.), following the manufacturer's instructions.
# Graduated height flow chambers were used to quantify adhesion of RBCs to HUVECs substantially as previously described in detail.^4, 20 In some adhesion studies, slides coated with HUVECs were treated with human recombinant TNF-α at 10 ng/ml for 4 hours. Slides coated with HUVECs treated or not with TNF-α were then washed three times with 20 ml HBSS with 1.26 mM Ca^2+, 0.9 mM Mg^2+ (Gibco, Grand Island, N.Y.) warmed previously to 37° C. and then fit into a variable height flow chamber. The flow chamber was mounted on the stage of an inverted phase contrast microscope (Diaphot, Nikon Inc., Melville, N.Y.) connected to a thermoplate (Tokai Hit Co., Ltd., Japan) set at 37° C. Cells were observed using a video camera (RS photometrics,) attached to the microscope and connected to a Macintosh G4 computer. RBC (3 ml) suspended at 0.2% (vol/vol) in HBSS with Ca^2+, Mg^2+ were infused into the flow chamber and allowed to adhere to the slide for 10 min without flow. Before exposure to flow, a minimum of three fields at each of seven different locations along a line oriented normal to future flow were examined for the total number of fluorescent cells. Fluid flow (HBSS with Ca^2+, Mg^2+) was then started using a calibrated syringe pump. After exposure to flow, the fields were again examined and the number of adherent cells counted. The fraction of adherent cells was presented as (number of cells attached after exposure to flow)/(cells present per field before flow). The wall shear stress was calculated as:
# [formula] τw=wall shear stress (dyne/cm^2); Q=volumetric flow rate (cm^3/s); μ is media viscosity, w is the width of the flow channel, and H(x) is the height of the flow chamber as a function of position along the microscope slide. Several investigators have shown that blood flow in small vessels may be continuous, with shear stresses of 1-2 dynes/cm^2, or flow may be intermittent. Our data were obtained using both intermittent and continuous flow conditions.
# [4] = tested on: AA RBC membrane ghost phosphopeptides; assay: Label-free quantitative phosphoproteomic analysis of normal (AA) RBC membrane ghosts; assay type: cell-based, human
# Protocol: (§1) Ghosted RBCs were spun at 14,000 rpm for 15 min at 4° C. to pellet membranes. Membrane pellets were washed with 1 mL 50 mM ammonium bicarbonate (pH 8.0) with vortexing and were then spun at 14,000 rpm for 30 min at 4° C. The supernatant was then removed and 500 μL of 50 mM ammonium bicarbonate with μL 0.2% acid-labile surfactant (ALS-1) in 50 mM ammonium bicarbonate (pH 8.0) was added. Samples were subjected to probe sonication three-times for 5 sec with cooling on ice between and insoluble material was cleared by centrifugation at 14,000 rpm for 30 mins at 4° C. Samples were normalized to approximately 2 μg/μl following a micro-Bradford assay (Pierce Bioscience), and were reduced with a final concentration of 10 mM dithiothreitol at 80° C. for 20 min. Samples were then alkylated with a final concentration of 20 mM iodoacetamide at room temperature for 45 min and trypsin was added to a final ratio of 1-to-50 (w/w) enzyme-to-protein and allowed to digest at 37° C. for 18 hr. To remove ALS-1, samples were acidified to pH 2.0 with neat TFA, incubated at 60° C. for 2 hrs and spun at 14,000 rpm to remove hydrolyzed ALS-1. Samples were either subjected directly to LC-MS analysis or subjected to a TiO2 based phosphopeptide enriched protocol.
# To enrich for phosphorylated peptides prior to LC-MS analysis, either 1,125 μg and 970 μg of total digested protein from RBC ghosts co-incubated with recombinant active ERK2 experiments and experiments using epinephrine-treated cells, respectively, were brought to near dryness using vacuum centrifugation and then resuspended in 200 μL of 80% acetonitrile, 1% TFA, 50 mg/ml MassPrep Enhancer (pH 2.5) (Waters Corp. Milford, Mass.). Samples were loaded onto an in-house packed TiO2 spin column (Protea Biosciences) with a 562 μg or 485 μg binding capacity for active ERK2 treated or epinephrine treated experiments, respectively. Samples were washed twice with 200 μL 80% acetonitrile, 1% TFA, 50 mg/ml MassPrep Enhancer (pH 2.5) followed by two washes with 200 μL 80% acetonitrile, 1% TFA (pH 2.5). Retained peptides were eluted twice with 100 μL 20% acetonitrile, 5% aqueous ammonia (pH 10.0), acidified to pH 3 with neat formic acid and then brought to dryness using vacuum centrifugation. […]
# MS data from each phosphopeptide enriched sample was acquired on a Thermo LTQ-Orbitrap XL mass spectrometer operating in positive-ion mode with an electrospray voltage of 2.0 kV with real-time lockmass correction on ambiant polycyclodimethylsiloxane (m/z 445.120025) enabled. […] Each sample was analyzed four-times, one of which was used for additional qualitative identifications only and was not included in the quantitative analysis, with product ions above a threshold of 500 counts were acquired for the top 5 most intense ions in the linear ion trap. […]
# [5] = tested on: SS RBC membrane ghost phosphopeptides; assay: Label-free quantitative phosphoproteomic analysis of SS RBC membrane ghosts; assay type: cell-based, human; conditions: recombinant ERK2 added to U0126-treated SS RBC ghosts
# Protocol: as §1
# To enrich for phosphorylated peptides prior to LC-MS analysis, either 1,125 μg and 970 μg of total digested protein from RBC ghosts co-incubated with recombinant active ERK2 experiments and experiments using epinephrine-treated cells, respectively, were brought to near dryness using vacuum centrifugation and then resuspended in 200 μL of 80% acetonitrile, 1% TFA, 50 mg/ml MassPrep Enhancer (pH 2.5) (Waters Corp. Milford, Mass.). Samples were loaded onto an in-house packed TiO2 spin column (Protea Biosciences) with a 562 μg or 485 μg binding capacity for active ERK2 treated or epinephrine treated experiments, respectively. Samples were washed twice with 200 μL 80% acetonitrile, 1% TFA, 50 mg/ml MassPrep Enhancer (pH 2.5) followed by two washes with 200 μL 80% acetonitrile, 1% TFA (pH 2.5). Retained peptides were eluted twice with 100 μL 20% acetonitrile, 5% aqueous ammonia (pH 10.0), acidified to pH 3 with neat formic acid and then brought to dryness using vacuum centrifugation. Prior to LC-MS analysis, each sample was resuspended in 20 μL 2% acetonitrile, 0.1% TFA, 25 mM citric acid (pH 2.5).
# Chromatographic separation of phosphopeptide enriched or non-enriched samples was performed on a Waters NanoAquity UPLC equipped with a 1.7 μm BEH130 C1875 μm I.D.×250 mm reversed-phase column. The mobile phase consisted of (A) 0.1% formic acid in water and (B) 0.1% formic acid in acetonitrile. Five μL injections of each sample were trapped for 5 min on a 5 μm Symmetry C18 180 μm I.D.×20 mm column at 20 μl/min in 99.9% A. The analytical column was then switched in-line and the mobile phase was held for 5 min at 5% B before applying a linear elution gradient of 5% B to 40% B or 5% B to 30% B over 90 min at 300 nL/min for ERK2 treated experiments or epinephrine treated experiments, respectively. The analytical column was connected to fused silica PicoTip emitter (New Objective, Cambridge, Mass.) with a 10 μm tip orifice and coupled to the mass spectrometer through an electrospray interface.
# MS data from each phosphopeptide enriched sample was acquired on a Thermo LTQ-Orbitrap XL mass spectrometer operating in positive-ion mode with an electrospray voltage of 2.0 kV with real-time lockmass correction on ambiant polycyclodimethylsiloxane (m/z 445.120025) enabled. The instrument was set to acquire a precursor MS scan from m/z 400-2000 with r=60,000 at m/z 400 and a target AGC setting of 1e6 ions. Each sample was analyzed four-times, one of which was used for additional qualitative identifications only and was not included in the quantitative analysis, with product ions above a threshold of 500 counts were acquired for the top 5 most intense ions in the linear ion trap. […]
# [6] = tested on: ERK1/2 phosphorylation in SS RBCs; assay: ERK1/2 phosphorylation in SS RBCs, Western blot (phosphoERK normalized to total ERK); assay type: cell-based, human
# Protocol: Aliquots of packed RBCs were treated with various reagents to affect cAMP signaling or protein phosphorylation. […] Treated RBCs were then washed 5 times with 4 ml PBS with Ca^2+ and Mg^2+. Normal RBCs were used as controls. Prior to adhesion assays, treated RBCs were labeled with PKH 26 red fluorescent cell linker kit (Sigma), following the manufacturer's instructions.
# Treated packed RBCs were lysed with hypotonic buffer (5 mM Na2HPO4+1 mM EDTA+0.1% NaN3, pH 8) containing 2 mM phenylmethylsulphonylfluoride (PMSF, Sigma), phosphatase inhibitor cocktail (Sigma) and protease inhibitor cocktail (Sigma). Protein separation by polyacrylamide gel electrophoresis using equal amounts of total RBC membrane ghost proteins per lane, after correcting total protein measurements for residual hemoglobin content, and Western blot^19 using the appropriate Ab were then performed. Mouse 3T3/A31 fibroblast lysate was used as a ERK1/2 positive control for immunoblots. For total ERK1/2, membranes blotted with anti-phosphoERK Ab were stripped and reexposed to Western blotting using anti-ERK1/2 Ab. Bands were analyzed densitometrically using ImageJ software downloaded from the NIH website. PhosphoERK1/2 data were normalized according to total ERK1/2 and are presented as fold change in ERK phosphorylation.
# [7] = tested on: ICAM-4 (LW) phosphorylation; assay: 32P labeling, ICAM-4 immunoprecipitation and detection of phosphorylation in SS RBCs; assay type: cell-based, human; conditions: SS RBCs preincubated with inhibitor
# Protocol: Cells were then washed 4 times. ICAM-4 protein immunoprecipitation, and total and phospho-ICAM-4 detection were performed as previously described in detail.^4 To further confirm that the immunoprecipitates were specific for ICAM-4, anti-ICAM-4 mAb and the negative control immunoglobulin P3 were used to immunoprecipitate ICAM-4 from non-radiolabeled SS RBCs incubated in the presence or absence of epinephrine. Blots were then immunostained with anti-ICAM-4 mAb.
# [8] = SS RBCs treated ex vivo with 10 μM inhibitor for 1 hour, n=5
compound,measurement,setting,value
COc1cc(F)c(F)c(Nc2ccc(I)cc2F)c1NS(=O)(=O)C1(C[C@H](O)CO)CC1 [RDEA119],ability of epinephrine-activated SS RBCs to promote neutrophil (PMN) adhesion to HUVECs,[1],significantly decreased
same,human SS RBC adhesion in inflamed venules,[2]; [8],dramatically decreased
same,vessel obstruction,[2]; [8],prevented vessel obstruction
same,percentage of venular length occupied by treated SS RBCs,[2]; vessels 25 μm in diameter,significantly decreased
same,percentage of venular length occupied by treated SS RBCs,[2]; vessels with a diameter >25 μm,significantly decreased
same,effect on SS RBC adhesion to TNF-α-activated HUVECs,[3],significantly abolished
Cn1cnc2c(F)c(Nc3ccc(Br)cc3Cl)c(C(=O)NOCCO)cc21 [AZD6244],ability of epinephrine-activated SS RBCs to promote neutrophil (PMN) adhesion to HUVECs,[1],significantly decreased
same,effect on SS RBC adhesion to TNF-α-activated HUVECs,[3],significantly abolished
ERK2: commercial recombinant active human ERK2 (Sigma) added to RBC membrane ghosts,increase of Ser540/Ser542 doubly phosphorylated peptide within protein 4.1,[4]; recombinant ERK2 added to U0126-treated AA RBC ghosts,1.7 fold
same,increase of Ser540/Ser542 doubly phosphorylated peptide within protein 4.1,[4]; recombinant ERK2 added to untreated AA RBC ghosts,2.1 fold
same,change of Ser540/Ser542 doubly phosphorylated peptide within protein 4.1,[5],+1.7 fold
Pertussis toxin [PTx],increase in basal phosphorylation of ERK1/2,"[6]; SS RBCs, 1 μg/ml PTx alone",2.04±0.1 fold
same,increase in basal phosphorylation of ERK1/2,"[6]; SS RBCs, 2 μg/ml PTx alone",2.53±0.11 fold
CC(=O)Nc1cccc(-n2c(=O)n(C3CC3)c(=O)c3c(Nc4ccc(I)cc4F)n(C)c(=O)c(C)c32)c1 [GSK1120212],ability of epinephrine-activated SS RBCs to promote neutrophil (PMN) adhesion to HUVECs,[1],significantly decreased
same,effect on SS RBC adhesion to TNF-α-activated HUVECs,[3],significantly abolished
COc1c(C=O)c(O)cc2c1C(=O)c1ccccc1C2=O [Damnacanthal],effect on PTx-induced ERK phosphorylation,"[6]; SS RBCs, 2 μg/ml PTx",did not abrogate
14-22 amide: PKA-specific inhibitor (PKAI),effect on epinephrine-induced ERK1/2 phosphorylation,"[6]; SS RBCs pre-incubated with inhibitor, then 20 nM epinephrine 1 min",completely blocked
same,effect on basal ERK phosphorylation,"[6]; SS RBCs, 30 nM",did not significantly decrease
same,effect on combined effect of epinephrine and SPI on ICAM-4 phosphorylation,[7],significantly decreased
TNF-α,increase in SS RBC adhesion vs non-activated HUVECs,"[3]; HUVECs treated with TNF-α, shear stress 2 dynes/cm^2, intermittent flow",2.6 fold
